These results are taken from US9975853B2, “Tetrahydroisoquinolinone derivatives and their use in the inhibition of the HSP70 protein” (Julius-Maximilians-Universitaet Wuerzburg, priority 2014, dated 2018).

Data set [1] has as its system INA-6. Briefly: Cell viability assay (annexin V-FITC/propidium iodide, flow cytometry) in INA-6 multiple myeloma cells. The settings on record: for EC50: INA-6 multiple myeloma cells, 72 hours of treatment, viable cell fraction, mean of at least three determinations, read-out: INA-6 EC50(±sdv). It counts as cell-based, human. The protocol:
The effect of pharmacological Hsp70 inhibition on cell viability was analyzed after 72 hours of treatment in both non-malignant (mononuclear cells from the peripheral blood) and malignant lymphocytes (multiple myeloma cells). The mononuclear cells were separated from the peripheral blood of healthy donors by Ficoll-Hypaque density gradient centrifugation. The human cell line INA-6 represents a well-established model for multiple myeloma. The percentage of viable and apoptotic cell fractions was assessed using an annexin V-FITC/propidium iodide (PI) staining kit (Bender MedSystems, Vienna, Austria) according to manufacturer's instructions. In brief, cells were washed in PBS, incubated for 10 min in 100 ml binding buffer (10 mM HEPES/NaOH, pH 7.4, 140 mM NaCl, 2.5 mM CaCl2) containing 2.5 ml annexin V-FITC mix and 1 mg/ml propidium iodide (PI), subsequently diluted with 100 ml binding buffer and analyzed by flow cytometry (FACSCalibur/CELLQuest; Becton Dickinson, Heidelberg, Germany). Whereas viable cells are negative for both, annexin V-FITC and PI, early apoptotic cells show a positive annexin V-FITC staining, and cells in a late apoptotic stage which lose their membrane integrity additionally incorporate DNA-binding PI. To establish kill curves, concentrations of the tested compounds were titrated, and the measured viable cell fractions were further analyzed using the Prism Calculation Software (GraphPad Software Inc., La Jolla, USA).
In FIG. 2A Western blot analyses of caspases 9 and 3, and the caspase substrate PARP (upper panel), and viability analyses (lower panel) of INA-6 MM cells upon treatment with trans-7b for 24 hours are shown. INA-6 cells were either incubated with DMSO (as a solvent control) or with 0.6 μM of trans-7b, and additionally incubated either with DMSO or the pan-caspase inhibitor Z-VAD-FMK prior to analyses by Western or viability assessment (without Z-VAD-FMK co-treatment) by Annexin V/propidum iodide double staining. For Western analyses INA-6 cell pellets were dissolved in lysis buffer (20 mM HEPES (pH 7.9), 350 mM NaCl, 1 mM MgCl2, 0.5 mM EDTA, 0.1 mM EGTA, 1% NP40, 0.5 mM dithiothreiol (DTT), 1 mM Na3VO4, 0.1 mM PMSF and 1 μg/ml aprotinin). Lysates were cleared by centrifugation, measured by quantitative protein assay (Bio-Rad, München, Germany) and subjected to SDS gel electrophoresis. Proteins were transferred onto nitrocellulose membranes (Schleicher & Schuell, Dassel, Germany), incubated with antibodies specific for caspase 9, caspase 3 or PARP (Cell Signaling Technology, Frankfurt a.Main, Germany) according to standard procedures and visualized with secondary anti-rabbit horseradish peroxidase (HRP)-conjugated antibodies using an enhanced chemoluminescence detection system (ECL, Amersham, Freiburg, Germany). […] Annexin V/propidium iodide (PI) staining was performed using a fluorescein isothiocyanate (FITC) conjugated recombinant human annexin/propidium iodide kit (BenderMedSystems, Vienna, Austria) according to the manufacturer's instructions. INA-6 cells were washed in PBS, incubated for 15 minutes in 100 ml binding buffer (10 mM HEPES/NaOH, pH 7.4, 140 mM NaCl, 2.5 mM CaCl2) containing 2.5 mL annexin V-FITC mix and 1 mg/ml PI and analyzed by flow cytometry (FACSCalibur/CELLQuest; Becton Dickinson, Heidelberg, Germany). Whereas early apoptosis is characterized by positive annexin V-FITC staining reaction, cells in a late apoptotic stage lose their membrane integrity and additionally incorporate PI. Thus, the fraction of viable cells remains negative for both annexin V-FITC and PI. […] Based on the above described experiments also viability analyses of INA-6 in comparison with non-malignant PBMCs were performed choosing a longer incubation time (72 hours) as shown in FIG. 2B or C. Raw data of three independent experiments have been calculated to establish means, standard deviation and dose-effect curves of trans-7b.
Background: Flow cytometry measures light scatter and fluorescence of single cells or particles in a stream.

The subject of data set [2] is caspases 9 and 3. Briefly: Apoptosis assay: cleavage and activation of caspases 9 and 3, PARP cleavage in INA-6 cells (Western blot). The class given is cell-based, human. The settings on record: INA-6, Z-VAD-FMK 50 μM. As for the experimental part: Apoptosis Assays. Hsp70-dependent prevention of apoptosis was investigated by analyses of the apoptosis-inducing factors (AIF) and of the caspases 9 and 3 in INA-6 cells. INA-6 cells were treated with 0.6 μM of compound trans-7b for 8 hours prior to analyze nuclear translocation of AIF. Staining of the nuclear protein lamin A was used as a loading control. […] Analysis of cleavage of the bona fide caspase substrate PARP served as a control for caspase activation. Co-treatment with the pan-caspase inhibitor Z-VAD-FMK (50 μM) was employed as another specificity control.
In FIG. 2A Western blot analyses of caspases 9 and 3, and the caspase substrate PARP (upper panel), and viability analyses (lower panel) of INA-6 MM cells upon treatment with trans-7b for 24 hours are shown. […] Lysates were cleared by centrifugation, measured by quantitative protein assay (Bio-Rad, München, Germany) and subjected to SDS gel electrophoresis. […] INA-6 cells were washed in PBS, incubated for 15 minutes in 100 ml binding buffer (10 mM HEPES/NaOH, pH 7.4, 140 mM NaCl, 2.5 mM CaCl2) containing 2.5 mL annexin V-FITC mix and 1 mg/ml PI and analyzed by flow cytometry (FACSCalibur/CELLQuest; Becton Dickinson, Heidelberg, Germany). […] Raw data of three independent experiments have been calculated to establish means, standard deviation and dose-effect curves of trans-7b.
(In general: A western blot detects proteins with antibodies after separation by electrophoresis.)

Each structure is given as a SMILES string. Like-named read-outs stand apart in the source and are kept apart here. Peptide text beside a SMILES is read from it. * marks the point of attachment. Cbz = O=C(OCc1ccccc1)*; CH2F = FC*

A word on the EC50: it is the concentration at which the effect is half-maximal. By melting point is commonly meant the temperature of the solid-liquid transition.

Regarding `COC(=O)C[C@H](NC(=O)[C@H](C)NC(=O)[C@@H](NC(=O)OCc1ccccc1)C(C)C)C(=O)CF` [Z-VAD-FMK, reference compound] (Cbz-Val-Ala-Asp(OMe)-CH2F), the “trans-7b-induced induction of apoptosis under co-incubation” value in data set [1] (INA-6, Z-VAD-FMK 50 μM with trans-7b 0.6 μM) was “largely prevented”. The “caspase activation and PARP cleavage under co-treatment with trans-7b” value in data set [2] was “sufficiently inhibited”.

Molecule `COc1ccc(N2C(=O)c3ccccc3C(C(=O)O)C2c2ccccc2)cc1` (stereo not drawn) [cis-5c, cis-2-(4-Methoxyphenyl)-1-oxo-3-phenyl-1,2,3,4-tetrahydroisoquinoline-4-carboxylic acid] came in with a melting point of 208 to 209 °C. In addition, the 50% effective concentration (EC50) in data set [1] (Homo sapiens, INA-6, 72 h) is above 100 µM.

`COc1ccc(C2C(C(=O)O)c3ccccc3C(=O)N2c2ccc(OC)cc2)cc1` (stereo not drawn) [cis-5d, cis-2,3-Bis(4-methoxyphenyl)-1-oxo-1,2,3,4-tetrahydroisoquinoline-4-carboxylic acid] yielded a melting point of 232 to 233 °C. For the same molecule, the EC50 in data set [1] was above 100 µM.

The molecule `O=C(O)C1c2ccccc2C(=O)N(c2ccccc2)C1c1ccccc1` (stereo not drawn) [trans-5a, trans-2,3-Diphenyl-1-oxo-1,2,3,4-tetrahydroisoquinoline-4-carboxylic acid] came in with a melting point of 226 to 229 °C. In addition, in data set [1] (Homo sapiens, INA-6, 72 h), the EC50 came out at 6.9 µM.

The molecule `COc1ccc(C2C(C(=O)O)c3ccccc3C(=O)N2c2ccccc2)cc1` (stereo not drawn) [trans-5b, trans-3-(4-Methoxyphenyl)-1-oxo-2-phenyl-1,2,3,4-tetrahydroisoquinoline-4-carboxylic acid] yielded a melting point of 171 to 173 °C. In addition, the EC50 in data set [1] (Homo sapiens, INA-6, 72 h) is 1.3 µM.

`COc1ccc(N2C(=O)c3ccccc3C(C(=O)O)C2c2ccccc2)cc1` (stereo not drawn) [trans-5c, trans-2-(4-Methoxyphenyl)-1-oxo-3-phenyl-1,2,3,4-tetrahydroisoquinoline-4-carboxylic acid] registered a melting point of 106 to 118 °C. Further, the EC50 in data set [1] is 57 µM.

In turn, `COc1ccc(C2C(C(=O)O)c3ccccc3C(=O)N2c2ccc(OC)cc2)cc1` (stereo not drawn) [trans-5d, trans-2,3-Bis(4-methoxyphenyl)-1-oxo-1,2,3,4-tetrahydroisoquinoline-4-carboxylic acid] displayed a melting point of 201 to 203 °C. The EC50 in data set [1] is 10.1 µM.
